Results on five compounds are retold here after paper PMC12473906, “Comparing the Altis RepliGut Organoid System to MDCK Monolayers in Predicting the Oral Absorption of Lenalidomide” (Pharmaceutics, 2025).

For orientation: Papp means a coefficient for how fast a substance crosses the barrier. What is called efflux ratio is a quotient of directional permeabilities that is used to spot active efflux. Usually LogP stands for a log measure of how a compound divides between an organic and an aqueous phase.

Read-outs that look alike come from different tables or passages of the source. Where only a bound is given, the exact number is not on record here.

The test system of one series is gMDCK monolayers. To be noted: MDCK.
Series [1] deals with human intestinal organoid-derived monolayer (RepliGut).
For series [2] the test system is unchanged. Briefly: RepliGut human jejunal organoid-derived monolayer permeability assay. The note with it: organoid vs gMDCK.
Assay in series [3]: as above
To be noted: human, pH 7.4.

The nature of series [4]: gMDCK (P-gp knockout MDCK) monolayer permeability assay. The note with it: dog, MDCK, pH 7.4, gMDCK Papp, reference compounds; apical to basolateral; n=3 biological replicates.
Series [5] can be described thus: in vitro. The note with it: human, pH 7.4.
For series [6] the following is noted: cited from earlier work; for Main Route of Absorption: as listed in Table 2, no reference given.
A short description of series [7]: in vitro. The note with it: dog, MDCK, pH 7.4, gMDCK Papp.
For series [8] the following is noted: ref PubChem; cited from earlier work.

Consider Lucifer yellow, for which the “effect of shaking gMDCK cells during the permeability assay on permeability” value in the series with gMDCK monolayers is reported as “did not significantly change”. For the same compound, in series [1], the “apical to basolateral apparent permeability in intestinal organoids compared with gMDCK monolayers” value (shortened to “apical … compared with gMDCK monolayers”) is “higher” and the “basolateral to apical permeability in intestinal organoids compared with gMDCK cells” value (shortened to “basolateral … compared with gMDCK cells”) was “similar”.

As for `CC(C)(C)NCC(O)COc1cccc2c1CC(O)C(O)C2` (stereo not drawn) [Nadolol], in [2], the “apical … compared with gMDCK monolayers” value is given as “higher” and the “basolateral … compared with gMDCK cells” value is reported as “significantly higher”. This compound had a Papp at 3 h in [3] of 0.17 ×10⁻⁶ cm/s. Moreover, the Papp at 3 h in [4] was 0.09 ×10⁻⁶ cm/s. In addition, in “in vitro [5]”, the efflux ratio at 3 h is more than 4. For the same compound, in series [6], the “Main Route of Absorption” value was “Paracellular” and the “Human Fa (fraction absorbed)” value was 57% [9]. Moreover, the “Efflux Substrate” value in series [1] was “Yes”.

`COCCc1ccc(OCC(O)CNC(C)C)cc1` (stereo not drawn) [Metoprolol] gave a Papp at 3 h in the series “in vitro [7]” of 13 ×10⁻⁶ cm/s. For the same compound, the Papp at 3 h in “in vitro [5]” was 10.1 ×10⁻⁶ cm/s. For the same compound, in [1], the “Efflux Substrate” value is “No” and the “basolateral … compared with gMDCK cells” value was “similar”.

Regarding `CC(CCc1ccccc1)NCC(O)c1ccc(O)c(C(N)=O)c1` (stereo not drawn) [Labetalol], in [2], the “apical … compared with gMDCK monolayers” value is “significantly lower” and the “basolateral … compared with gMDCK cells” value is “significantly higher”. In series [3], this compound gave an apparent permeability coefficient (Papp) at 3 h of 0.85 ×10⁻⁶ cm/s. In series [8], the LogP is recorded as 1.8. In series [6], the “Main Route of Absorption” value is “Both” and the “Human Fa (fraction absorbed)” value was 95% [9].

With `CC(C)CN(C[C@@H](O)[C@H](Cc1ccccc1)NC(=O)O[C@H]1CCOC1)S(=O)(=O)c1ccc(N)cc1` [Amprenavir], the LogP in series [8] is 2.2. Besides, the “Main Route of Absorption” value in [6] is recorded as “Transcellular”. In addition, the “Efflux Substrate” value in series [1] is “Yes”.
